# According to patent US4762820A, “Therapeutic treatment for congestive heart failure” (Trustees of Boston University, priority 1986, dated 1988):
# Values joined by “and” are separate entries in the source; they are usually repeats but may differ in a detail not shown here. Identical values can stand only once.
# Legend:
# arginine vasopressin [1] = experiment: Change in mean arterial pressure after AVP injection in rats, before and after nasal administration of the selective antagonist; type: in vivo, Wistar rats
# Description: On the day before experimental testing, each rat was placed under ether anesthesia, and the right iliac artery and the right external jugular vein were catherized with PE-50 tubing. On the day following surgery, with the animal remaining unrestrained, the mean arterial pressure was monitored via a Hewlett-Packard 1280C transducer and a 7702B Recorder.
# A vasopressin injection was prepared by diluting commercially obtained Pitressin at 20 U/ml concentration with 5% dextrose in water (hereinafter "D5W") to yield a sterile 20 mU/ml final concentration. […] All intravenous injections of vasopressin were flushed through using an additional volume comprising 0.2-0.3 ml of D5W.
# Each experimental animal was tested in two stages: initially, two 0.1 ml injections each containing 2.0 millipressor units of arginine vasopressin were given through the venous catheter over a ten minute period and the individual changes in mean arterial pressure recorded. This stage identified each of the test animals as being susceptible to the physiological effects of vasopressin. The second stage of the experiment comprised release of 0.1 ml containing 250 ug of the selective antagonist onto the nasal mucosae of the rat via a PE-50 catheter which had been inserted into one of the nostrils to a depth of about four millimeters. This administration of the antagonist as a nasal spray onto the mucosae of the nose was followed by repeated injection of 0.1 ml volumes, each containing 2.0 millipressor units of arginine vasopressin, at 10, 20, 30, 60, and 120 minutes after the administration of the selective antagonist. The change in mean arterial pressure was recorded at each of these intervals after each injection of the vasopressin.
# arginine vasopressin [2] = details: 0.5 mg i.v.; exogenous AVP 20 mU/kg; cited from earlier work
Compound,"mean change in arterial pressure (arginine vasopressin [1]; 2.0 millipressor units AVP i.v., mean of the three test animals)","Changes in Mean Arterial Pressure After AVP Injection Alone (arginine vasopressin [1]; individual rats, 2.0 millipressor units AVP i.v., no antagonist)",inhibition of the blood pressure response to exogenous arginine vasopressin (arginine vasopressin [2]) [%],"effect of repeated 2.0 mU vasopressin injection after nasal spraying (arginine vasopressin [1]; 250 ug nasal, for at least the two hours of the test)","Changes in Mean Arterial Pressure After Antagonist Adm. + AVP Injections, 10' (arginine vasopressin [1]; individual rats, 250 ug antagonist onto nasal mucosae, 2.0 mU AVP i.v. 10 min later)","Changes in Mean Arterial Pressure After Antagonist Adm. + AVP Injections, 20' (arginine vasopressin [1]; individual rats, 250 ug antagonist onto nasal mucosae, 2.0 mU AVP i.v. 20 min later)","Changes in Mean Arterial Pressure After Antagonist Adm. + AVP Injections, 30' (arginine vasopressin [1]; individual rats, 250 ug antagonist onto nasal mucosae, 2.0 mU AVP i.v. 30 min later)","Changes in Mean Arterial Pressure After Antagonist Adm. + AVP Injections, 60' (arginine vasopressin [1]; individual rats, 250 ug antagonist onto nasal mucosae, 2.0 mU AVP i.v. 60 min later)","Changes in Mean Arterial Pressure After Antagonist Adm. + AVP Injections, 120' (arginine vasopressin [1]; individual rats, 250 ug antagonist onto nasal mucosae, 2.0 mU AVP i.v. 120 min later)"
"NC(=O)CC[C@@H]1NC(=O)[C@H](Cc2ccccc2)NC(=O)[C@H](Cc2ccc(O)cc2)NC(=O)[C@@H](N)CSSC[C@@H](C(=O)N2CCC[C@H]2C(=O)N[C@@H](CCCN=C(N)N)C(=O)NCC(N)=O)NC(=O)[C@H](CC(N)=O)NC1=O [AVP, arginine vasopressin, reference compound]",about 35 mmHg,+37.5 mm Hg and +38.5 mm Hg and +29.0 mm Hg,–,–,–,–,–,–,–
"[1-(β-mercapto-β,β-cyclopentamethylenepropionic acid), 2-(O-methyl)tyrosine]arginine vasopressin [AVP Antagonist]",–,–,80,no significant effect,0 mm Hg and +5 mm Hg,0 mm Hg and +5 mm Hg,0 mm Hg and +5 mm Hg,0 mm Hg and +5 mm Hg,0 mm Hg and +5 mm Hg
